Reference: the Kinase Knowledgebase extract (Sharma et al. 2016)
pIC50: −log10 of the molar value.

Target: PIK3CB;PIK3CG;PIK3CD;PIK3CA (human) (UniProt P48736)
Experiment: Enzyme Assay

In the case of `CN1CCCC(N2CCC[C@H](n3nc(C(=O)N4CCOCC4)c4c3-c3ccccc3S(=O)(=O)C4)C2)C1` (stereo not given in full), the pIC50 was 7.74.
For `NC(=O)c1cccc(-n2nc(C(=O)N3CCOCC3)c3c2-c2ccccc2S(=O)(=O)C3)c1`, the pIC50 was 6.02.
With `O=C(c1nn(CCN2CCOCC2)c2c1CS(=O)(=O)c1ccccc1-2)N1CCOCC1` the pIC50 was 6.10.
In the case of `CCCCn1nc(C(=O)N2CCOCC2)c2c1-c1ccccc1S(=O)(=O)C2`, the pIC50 was 6.42.
With `O=C(c1nn(C2CCCNCC2)c2c1CS(=O)(=O)c1ccccc1-2)N1CCOCC1` (stereo not given) the pIC50 was 5.72.
Compound `COc1ccc(-n2nc(C(=O)N3CCOCC3)c3c2-c2ccccc2S(=O)(=O)C3)cc1` has a pIC50 of 6.13.
`Cn1nc(C(=O)N2CCOCC2)c2c1-c1cccc(Br)c1S(=O)(=O)C2` showed a pIC50 of 5.96.
For `COc1cccc2c1S(=O)(=O)Cc1c(C(=O)N3CCOCC3)nn(-c3ccccc3)c1-2`, the pIC50 was 6.34.
`O=C(c1nn(-c2ccc(CN3CCC(O)C3)cc2)c2c1CS(=O)(=O)c1ccccc1-2)N1CCOCC1` (stereo not given) showed a pIC50 of 6.07.
`O=C(c1nn(-c2cccc(CN3CCSCC3)c2)c2c1CS(=O)(=O)c1ccccc1-2)N1CCOCC1` was tested, and the pIC50 was 6.63.
`O=C(c1nn(-c2cccc(CN3CCC(O)CC3)c2)c2c1CS(=O)(=O)c1ccccc1-2)N1CCOCC1` was tested, and the pIC50 was 6.24.
`COCCCN1CCC(n2nc(C(=O)N3CCOCC3)c3c2-c2ccccc2S(=O)(=O)C3)C1` (stereo not given) gave a pIC50 of 6.03.
`O=C(c1nn(C2CCCCCC2)c2c1CS(=O)(=O)c1ccccc1-2)N1CCOCC1` gave a pIC50 of 6.33.
`CC1COCCN1Cc1ccc(-n2nc(C(=O)N3CCOCC3)c3c2-c2ccccc2S(=O)(=O)C3)cc1` (stereo not given) showed a pIC50 of 6.74.
`COc1cccc2c1S(=O)(=O)Cc1c(C(=O)N3CCOCC3)nn([C@H]3CCCN(CCN4CC(F)(F)C4)C3)c1-2` gave a pIC50 of 7.40.
In the case of `O=C(c1nn(-c2ccccc2F)c2c1CS(=O)(=O)c1ccccc1-2)N1CCOCC1`, the pIC50 was 5.70.
Compound `O=C(c1nn(C2CCCC2)c2c1CS(=O)(=O)c1ccccc1-2)N1CCOCC1` has a pIC50 of 6.69.
`O=C(c1ccc(-n2nc(C(=O)N3CCOCC3)c3c2-c2ccccc2S(=O)(=O)C3)cc1)N1CCOCC1` showed a pIC50 of 6.56.
Work on `O=C(c1nn(C2CCN(C3CCOCC3)C2)c2c1CS(=O)(=O)c1c(F)cccc1-2)N1CCOCC1` (stereo not given) yielded a pIC50 of 7.54.
Work on `Cc1cccc2c1S(=O)(=O)Cc1c(C(=O)N3CCOCC3)nn([C@H]3CCCN(CCN4CCOCC4)C3)c1-2` yielded a pIC50 of 7.31.
`CN(C)Cc1cccc(-n2nc(C(=O)N3CCOCC3)c3c2-c2ccccc2S(=O)(=O)C3)c1` gave a pIC50 of 5.95.
With `O=C(c1nn(C2CCCN(CCN3CC(F)(F)C3)C2)c2c1CS(=O)(=O)c1c(F)cccc1-2)N1CCOCC1` (stereo not given) the pIC50 was 7.42.
Work on `O=C(c1nn(C2CCN(CCn3ccnc3)C2)c2c1CS(=O)(=O)c1ccccc1-2)N1CCOCC1` (stereo not given) yielded a pIC50 of 6.78.
`COc1ccc2c(c1)S(=O)(=O)Cc1c(C(=O)N3CCOCC3)nn(-c3ccccc3)c1-2` was tested, and the pIC50 was 6.46.
For `Cc1ccc2c(c1)-c1c(c(C(=O)N3CCOCC3)nn1-c1ccccc1)CS2(=O)=O`, the pIC50 was 5.82.
For `Cc1ccc(-n2nc(C(=O)N3CCOCC3)c3c2-c2ccccc2S(=O)(=O)C3)cc1`, the pIC50 was 6.16.
`O=C(c1nn([C@@H]2CCN(C3CCOCC3)C2)c2c1CS(=O)(=O)c1c(F)cccc1-2)N1CCOCC1` gave a pIC50 of 5.69.
`O=C(c1nn(C2CCN(C3CCOCC3)C2)c2c1CS(=O)(=O)c1ccccc1-2)N1CCOCC1` (stereo not given) showed a pIC50 of 7.11.
`COCCN1CCC[C@H](n2nc(C(=O)N3CCOCC3)c3c2-c2cccc(OC)c2S(=O)(=O)C3)C1` was tested, and the pIC50 was 6.89.
With `O=C(CC1CCCCC1)N1CCC(n2nc(C(=O)N3CCOCC3)c3c2-c2ccccc2S(=O)(=O)C3)C1` (stereo not given) the pIC50 was 6.15.
In the case of `O=C(c1nn(C2CCC(O)CC2)c2c1CS(=O)(=O)c1ccccc1-2)N1CCOCC1` (stereo not given), the pIC50 was 6.29.
`O=C(c1ccc2c(c1)-c1c(c(C(=O)N3CCOCC3)nn1-c1ccccc1)CS2(=O)=O)N1CCCCC1` showed a pIC50 of 5.47.
Work on `O=C(c1nn(-c2ccc(CN3CCCC3)cc2)c2c1CS(=O)(=O)c1ccccc1-2)N1CCOCC1` yielded a pIC50 of 6.55.
In the case of `O=C(c1nn(-c2ccccc2Br)c2c1CS(=O)(=O)c1ccccc1-2)N1CCOCC1`, the pIC50 was 5.26.
For `O=C1CCCN1CCN1CCC[C@H](n2nc(C(=O)N3CCOCC3)c3c2-c2ccccc2S(=O)(=O)C3)C1`, the pIC50 was 7.10.
